Test results: patent publication EP0163240A2, “Dihydroimidazo[1,2-a]pyrimidine derivatives, methods of preparing said compounds and pharmaceutical compositions constaining said compounds” (priority 1984, dated 1985)
Counter-ions that a name gives are not always drawn. Like-named read-outs stand apart in the source and are kept apart here.

Legend:
coronary blood flow = experiment: Effect on coronary blood flow; assay type: in vivo, Adult mongrel dogs; conditions: for ED50: dose required to increase the coronary blood flow by a half of the effects of nifedipine, injected into the coronary artery, anesthetized dogs; for T 1/2: half-life measured as the duration of effects on coronary blood flow
Method: Pharmacological experiment 2: Effect on coronary blood flow Adult mongrel dogs were anesthetized with sodium pentobarbital (30 mg/kg, i.v.). According to the method of Yago et al described in Folia Pharmacol. Japon, vol. 57, 380 (1961), the left coronary artery was perfused and its blood flow was measured. […] The half-life (T 1/2, minute) was measured as the duration of effects.

[1] = system: spontaneously hypertensive rats; experiment: Effect on hypertension (tail cuff method); assay type: in vivo, male spontaneously hypertensive rats; conditions: 30 mg/kg orally
Method: Pharmacological experiment 5: Effect on hypertension
(§1) Each of 30 mg/kg of test compounds A and Q was orally administered to five male spontaneously hypertensive rats and the blood pressure was measured by the tail cuff method. The blood pressure lowering value after 1 hour administration of test compound A was 48 mmHg and that value after 5 hours administration of test compound Q was 64 mmHg. Pharmacological experiment 6: Anticholinergic activity

vertebral blood flow = experiment: Effect on vertebral blood flow; assay type: in vivo, Adult mongrel dogs; conditions: for ED100: dose required to obtain 100% of the increase of blood flow by 100 µg of papaverine hydrochloride, injected in the vertebral artery, anesthetized dogs; for T 1/2: half-life measured as the duration of effects on vertebral blood flow
Method: Pharmacological experiment 3: Effect on vertebral blood flow Adult mongrel dogs were anesthetized with sodium pentobarbital (25 mg/kg, i.v.). The right vertebral artery was perfused and the blood flow was measured. Test compound was injected in the vertebral artery. […] Half-life (T 1/2, minute) was measured as the duration of effects.

liver mitochondria = experiment: Effect on lipid peroxidation (malondialdehyde formation in liver mitochondria, thiobarbituric acid method); assay type: biochemical, Male Sprague-Dawley rats; conditions: 50% inhibitory concentration on the formation of malondialdehyde; ascorbic acid, ferrous sulfate; 25°C for 30 minutes
Method: Pharmacological experiment 4: Effect on lipid peroxidation
Male Sprague-Dawley rats weighing 300-350 g were used. According to the method of Shimada et al described in Biochim. Biophys. Acta, vol. 572, 531 (1979), the liver mitochondria were isolated and ascorbic acid, ferrous sulfate, potassium chloride and Tris-HC1 buffer were added. To the solution was added test compound dissolved in dimethyl sulfoxide, and the mixture was incubated at 25°C for 30 minutes. The amount of malondialdehyde was determined by the thiobarbituric acid method and the 50% inhibitory concentration (IC50, µmol) of test compound on the formation of malondialdehyde was measured.

Trachea of guinea pig = experiment: Anticholinergic activity (ACh-contracted tracheal strip chain preparation); conditions: for relaxant effect on ACh-contracted preparation: 10^-7-10^-5M; for IC50: Cavia porcellus, read-out: 50% inhibitory concentration (IC50) on ACh-induced contraction
Method: as §1
Trachea of guinea pig, weighing 380-550 g, was isolated and prepared its strip chain preparation. The preparation was mounted in organ bath filled with Krebs-Henseleit solution gassed with 95% 02 and 5% CO2. Length of the preparation was measured by isometric transducer (MEC, ME-4012). The preparation was contracted by 10^-6 M of acetylcholine (ACh) and then, test compounds were added cumulatively into the bath to observe relaxant effect.
(§2) Pharmacological experiment 7: Toxicity

ddY strain mice = assay type: in vivo
Description: as §2
Test compounds A, B, C, E and S were orally administered to five ddY strain mice.

[2] = preparation contracted by 10^-6 M of acetylcholine (ACh), cumulative addition
[3] = oral dose of 1000 mg/kg, five mice

Structure (SMILES) | ED50 (coronary blood flow) [µg] | T 1/2 (coronary blood flow) [min] | ED100 (vertebral blood flow) [µg] | T 1/2 (vertebral blood flow) [min] | IC50 (liver mitochondria) [nM] | further results
CCN(CC)Cc1cnc2n1C(c1cccc([N+](=O)[O-])c1)C(C(=O)OCCOC)=C(C)N2 (centres unmarked) [Compound J, 2-Methoxyethyl 3-diethylaminomethyl-7-methyl-5-(3-nitrophenyl)-5,8-dihydroimidazo[1,2-a]pyrimidine-6-carboxylate] | 5 | 1.7 |  |  |  | 
CCN(CC)Cc1cnc2n1C(c1cccc([N+](=O)[O-])c1)C(C(=O)OC(CN1CCCCC1)c1ccccc1)=C(C)N2 (single isomer, unassigned) [Compound Q, 2-Piperidino-1-phenylethyl 3-diethylaminomethyl-7-methyl-5-(3-nitrophenyl)-5,8-dihydroimidazo [1,2-a]pyrimidine-6-carboxylate (β-form)] |  |  | 18 | 4.0 |  | blood pressure lowering value ([1]; after 5 hours): 64 mmHg
CCOC(=O)C1=C(C)Nc2ncc(N3CCCC3)n2C1c1cccc([N+](=O)[O-])c1 (stereo not drawn) [Compound D, Ethyl 7-methyl-5-(3-nitrophenyl)-3-(l-pyrrolidinyl)-5,8-dihydroimidazo[1,2-a]pyrimidine-6-carboxylate] | 8 | 1.3 |  |  | 200 | 
CCOC(=O)C1=C(C)Nc2ncc(CNCc3ccccc3)n2C1c1cccc([N+](=O)[O-])c1.Cl.Cl (centres unmarked) [Compound N, Ethyl 3-benzylaminomethyl-7-methyl-5-(3-nitrophenyl)-5,8-dihydroimidazo[1,2-a]pyrimidine-6-carboxylate dihydrochloride] |  |  | 10 | 0.7 |  | 
CCOC(=O)C1=C(C)Nc2ncc(CN(CC)CC)n2C1c1cccc([N+](=O)[O-])c1 (centres unmarked) [Compound B, Ethyl 3-diethylaminomethyl-7-methyl-5-(3-nitrophenyl)-5,8-dihydroimidazo[l,2-a]pyrimidine-6-carboxylate hydrochloride] | 3 | 1.5 | 10 | 0.8 | 20000 | relaxant effect on ACh-contracted preparation (Trachea of guinea pig): relaxed ACh-contracted preparation in a concentration-dependent manner; IC50 (Trachea of guinea pig; [2]): 4000 nM; survival (ddY strain mice; mouse, in vivo, po, 1000 mg/kg): All mice were survived
CCCCNCc1cnc2n1C(c1cccc([N+](=O)[O-])c1)C(C(=O)OCC)=C(C)N2.Cl.Cl (centres unmarked) [Compound O, Ethyl 3-butylaminomethyl-7-methyl-5-(3-nitrophenyl)-5,8-dihydroimidazo[1,2-a]pyrimidine-6-carboxylate dihydrochloride] |  |  | 15 | 0.7 |  | 
CCOC(=O)C1=C(C)Nc2ncc([N+](=O)[O-])n2C1c1ccccc1C(F)(F)F (centres unmarked) [Compound M, Ethyl 7-methyl-3-nitro-5-(2-trifluoromethylphenyl)-5,8-dihydroimidazo[1,2-a]pyrimidine-6-carboxylate] | 5 | 1.0 |  |  |  | 
CCN(CC)Cc1cnc2n1C(c1ccccc1C(F)(F)F)C(C(=O)OC)=C(C)N2 (centres unmarked) [Compound E, Methyl 3-diethylaminomethyl-7-methyl-5-(2-trifluoromethylphenyl)-5,8-dihydroimidazo[1,2-a] pyrimidine-6-carboxylate] | 5 | 1.0 |  |  | 15000 | survival (ddY strain mice; [3]): All mice were survived
CN1[C@@H]2CC[C@H]1C[C@@H](OC(=O)C(CO)c1ccccc1)C2 (some centres unmarked) [atropine, reference compound] |  |  |  |  |  | IC50 (Trachea of guinea pig): 0.74 nM
CCOC(=O)C1=C(C)Nc2ncc(N(C)Cc3ccccc3)n2C1c1cccc([N+](=O)[O-])c1 (centres unmarked) [Compound R, Ethyl 7-methyl-5-(3-nitrophenyl)-3-(N-benzyl-N-methyl)amino-5,8-dihydroimidazo[1,2-a]pyrimidine-6-carboxylate] |  |  |  |  | 700 | 
CCOC(=O)C1=C(C)Nc2ncc(CN(CC)CC)n2C1c1ccccc1[N+](=O)[O-].Cl.Cl.O (centres unmarked) [Compound I, Ethyl 3-diethylaminomethyl-7-methyl-5-(2-nitrophenyl)-5,8-dihydroimidazo[1,2-a]pyrimidine-6-carboxylate dihydrochloride monohydrate] | 10 | 2.0 |  |  |  | 
COC(=O)C1=C(C)Nc2ncc(COC(C)C)n2C1c1cccc([N+](=O)[O-])c1 (centres unmarked) [Compound L, Methyl 3-isopropoxymethyl-7-methyl-5-(3-nitrophenyl)-5,8-dihydroimidazo[1,2-a]pyrimidine-6-carboxylate] | 5 | 1.0 |  |  |  | 
COC(=O)C1=C(C)Nc2ncc(CN3CCCC3)n2C1c1cccc([N+](=O)[O-])c1 (centres unmarked) [Compound P, Methyl 7-methyl-5-(3-nitrophenyl)-3-(1-pyrrolidinylmethyl)-5,8-dihydroimidazo[1,2-a] pyrimidine-6-carboxylate dihydrochloride] |  |  | 6 | 0.6 |  | IC50 (Trachea of guinea pig; [2]): 2300 nM
CCN(CC)Cc1cnc2n1C(c1cccc([N+](=O)[O-])c1)C(C(=O)OC)=C(C)N2 (centres unmarked) [Compound A, Methyl 3-diethylaminomethyl-7-methyl-5-(3-nitrophenyl)-5,8-dihydroimidazo[l,2-a]pyrimidine-6-carboxylate hydrochloride] | 2 | 1.0 | 2 | 0.9 | 50000 | blood pressure lowering value ([1]; after 1 hour): 48 mmHg; relaxant effect on ACh-contracted preparation (Trachea of guinea pig): relaxed ACh-contracted preparation in a concentration-dependent manner; IC50 (Trachea of guinea pig; [2]): 1600 nM; survival (ddY strain mice; mouse, in vivo, po, 1000 mg/kg): All mice were survived
CCOC(=O)C1=C(C)Nc2ncc(N(CC)CC)n2C1c1cccc([N+](=O)[O-])c1 (centres unmarked) [Compound F, Ethyl 3-diethylamino-7-methyl-5-(3-nitrophenyl)-5,8-dihydroimidazo[1,2-a]pyrimidine-6-carboxylate] | 12 | 1.0 |  |  | 2000 | 
CCOC(=O)C1=C(C)Nc2ncc(CN(C)Cc3ccccc3)n2C1c1cccc([N+](=O)[O-])c1.Cl.Cl.O (centres unmarked) [Compound C, Ethyl 3-(N-benzyl-N-methylamino)methyl-7-methyl-5-(3-nitrophenyl)-5,8-dihydroimidazo[1,2-a] pyrimidine-6-carboxylate dihydrochloride monohydrate] | 10 | 1.5 | 5 | 1.5 |  | survival (ddY strain mice; mouse, in vivo, po, 1000 mg/kg): All mice were survived
CCOCc1cnc2n1C(c1cccc([N+](=O)[O-])c1)C(C(=O)OCC)=C(C)N2 (centres unmarked) [Compound G, Ethyl 3-ethoxymethyl-7-methyl-5-(3-nitrophenyl)-5,8-dihydroimidazo[1,2-a]pyrimidine-6-carboxylate] | 7 | 1.0 |  |  | 10000 | 
COC(=O)C1=C(C)Nc2ncc(CN(C(C)C)C(C)C)n2C1c1cccc([N+](=O)[O-])c1 (centres unmarked) [Compound K, Methyl 3-diisopropylaminomethyl-7-methyl-5-(3-nitrophenyl)-5,8-dihydroimidazo[1,2-a]pyrimidine-6-carboxylate] | 6 | 1.5 |  |  |  | 
CCCN(CCC)Cc1cnc2n1C(c1cccc([N+](=O)[O-])c1)C(C(=O)OC)=C(C)N2 (centres unmarked) [Compound H, Methyl 3-dipropylaminomethyl-7-methyl-5-(3-nitrophenyl)-5,8-dihydroimidazo[1,2-a]pyrimidine-6-carboxylate] | 7 | 1.0 | 2 | 1.0 |  | 
COC(=O)C1=C(C)Nc2ncc(CNc3ccccc3C(F)(F)F)n2C1c1cccc([N+](=O)[O-])c1 (centres unmarked) [Compound S, Methyl 7-methyl-5-(3-nitrophenyl)-3-(2-trifluoromethylphenyl)aminomethyl-5,8-dihydroimidazo[1,2-a]pyrimidine-6-carboxylate] |  |  |  |  |  | survival (ddY strain mice; [3]): All mice were survived
